Measurements reported in patent US20250042941A1, “PEPTIDE HAVING PHYSIOLOGICAL ACTIVITY AND USE THEREOF” (CAREGEN CO., LTD., priority 2021, published 2025).

Legend:
TRAP = settings: RAW264.7; peptide 10, 30, 50, 100, 150 μg/ml with RANKL; 4 days; absorbance 405 nm; concentration-dependent; FIG. 10C
Protocol: Mouse RAW264.7 cell line was distributed in a 96-well plate at a density of 1.7×10^3 cells/well and cultured in DMEM medium for 24 hours. After 24 hours, the peptide of SEQ ID NO: 1 was treated at concentrations of 10, 30, 50, 100, and 150 μg/ml together with RANKL, and then differentiation of osteoclasts was induced for 4 days. The cells were treated with 100 μl of a TRAP activity solution (TRAP buffer (0.1 sodium citrate+15 ml of 50 μM sodium tartrate [pH 5.0])+4-nitrophenly phosphate disodium salt hexahydrate, sigma, 1 tablet mix), incubated at 37° C. for 1 hour, and treated with 10 μl of 2 N NaOH. Absorbance at a wavelength of 405 nm was measured using a plate reader.

[1] = tested on: human C28/12 chondrocyte cell line; assay: ECM production in chondrocytes, alcian blue staining; assay type: cell-based; settings: peptide 30, 50, 100, 150 μg/ml, day 6, FIG. 2
Protocol: In order to confirm the cartilage regeneration effect of treatment with the peptide of the present invention containing the amino acid sequence of SEQ ID NO: 1, human-derived chondrocytes were treated with the peptide of SEQ ID NO: 1, and then it was confirmed whether there was an increase in formation of glycosaminoglycan, which is an ECM component.
(§1) After removing the medium on day 6, 60 μl of 3.7% formalin was added to the 96-well plate to be stained and fixed for 1 minute. After removing the 3.7% formalin, 70 μl of an alcian blue staining solution (50 ml of 3% acetic acid+0.5 g of 1% Asian blue 8GX, pH 2.5) was added, and incubation was performed at 37° C. for 24 hours. Thereafter, the staining solution was removed, washing with triple distilled water and drying were performed, and then observation was performed with a microscope.

[2] = tested on: mouse RAW264.7 macrophage cell line; assay: Inflammatory cytokine mRNA in macrophages induced by inflammation with TNFα (RT-PCR); assay type: cell-based; settings: peptide 100 and 150 μg/ml 1 hour, then 20 nM TNF-α 24 hours, FIG. 8
Protocol: In addition to the cartilage regenerative activity confirmed in Experimental Examples 1 to 6, in order to confirm the anti-inflammatory effect according to the treatment with the peptide containing the amino acid sequence of SEQ ID NO: 1 of the present invention, mouse RAW264.7 macrophage cell line was treated with TNF to induce inflammation, and the expression levels of TNFα and IL-18, which are inflammatory cytokines, and Cox2 gene, which is an inflammation-inducing marker, were confirmed. The cytokine TNFα was treated to induce inflammation. Since TNFα corresponds to a signal transduction protein related to an inflammatory response, IL-18 corresponds to a cytokine that promotes an inflammatory response, and Cox2 is an inflammation-related protein, a degree of the inflammatory response may be confirmed by measuring the expression levels of TNFα, Cox2, and […] genes. To this end, mouse RAW264.7 cell line was distributed in a 6-well plate at a density of 2×10^5 cells/well and cultured in α-MEM medium containing 10% FBS for 24 hours. The medium was replaced with serum-free α-MEM medium (1% penicillin) and then fasted for 6 hours. […] After 1 hour, the cells were treated with 20 nM TNF-α and incubated for 24 hours. Thereafter, the cells were harvested and RNA was isolated. […]

[3] = tested on: human C28/12 chondrocyte cell line; assay: ECM gene expression in chondrocytes (RT-PCR); assay type: cell-based; settings: peptide 50 and 100 μg/ml, day 9, mRNA, FIG. 3
Protocol: Human-derived chondrocytes were treated with the peptide containing the amino acid sequence of SEQ ID NO: 1, and then it was confirmed whether there was an increase in mRNA expression of collagen type II (COL2A1), aggrecan (ACAN), and proteoglycan core protein (PCP), which are ECM components, and GAPDH gene, which is a control.
To this end, human C28/12 chondrocyte cell line was distributed in a 6-well plate at a density of 8.9×10^4 cells/well and cultured in DMEM medium (cat. 11995-065, Gibco) for 24 hours. […] After removing the medium on day 9, cells were harvested and RNA was isolated. After synthesizing cDNA using a cDNA synthesis kit (Intron, Korea), PCR was performed for collagen type II, ACAN, PCP, and GAPDH genes using PCR pre-mix (Intron, Korea).

human AD-MSC cells = assay: ECM gene expression in mesenchymal stem cells (RT-PCR); assay type: cell-based; settings: peptide 50 and 100 μg/ml, days 3, 7, 11, FIGS. 7A to 7C
Protocol: Adipose-derived mesenchymal stem cells were treated with the peptide containing the amino acid sequence of SEQ ID NO: 1, and then it was confirmed whether there was an increase in expression of cartilage oligomeric matrix protein (COMP), collagen type 11A (COL 11A), PCP, and ACAN (aggrecan) genes associated with the ECM production.
After removing the medium on days 3, 7, and 11, cells were harvested and RNA was isolated. After synthesizing cDNA using a cDNA synthesis kit (Intron, Korea), PCR was performed for COMP, COL 11A, PCP, ACAN, and GAPDH genes using PCR pre-mix (Intron, Korea).

[4] = tested on: human adipose-derived mesenchymal stem cells (AD-MSCs); assay: Differentiation of mesenchymal stem cells into chondrocytes and ECM production, alcian blue staining; assay type: cell-based; settings: peptide 30, 50, 100, 150 μg/ml, day 15, FIG. 5
Protocol: Adipose-derived mesenchymal stem cells were treated with the peptide containing the amino acid sequence of SEQ ID NO: 1, and then the effect on chondrogenic differentiation of the stem cells and ECM production was confirmed.
as §1, with “15,” for “6,”

NFATc1 protein = NFATc1 protein in RANKL-induced osteoclast differentiation (Western blot); assay type: cell-based, mouse; settings: RAW264.7, peptide 50 and 100 μg/ml with RANKL, day 1 of induction, FIG. 11
Protocol: Mouse RAW264. […] After removing the medium on day 1 of induction, cells were harvested, a cell lysate was prepared, and Western blot was performed using antibodies (Millipore, USA) against NFATc1 protein.

COX2 protein = COX2 protein in macrophages induced by inflammation with TNFα (Western blot); assay type: cell-based, mouse; settings: RAW264.7, peptide 100 and 150 μg/ml 1 hour, then 20 nM TNF-α 24 hours, FIG. 9
Protocol: In addition to the results of Experimental Example 7, in order to further confirm the anti-inflammatory effect of the treatment with the peptide containing the amino acid sequence of SEQ ID NO: 1 of the present invention, mouse RAW264. 7 macrophage cell line was treated with TNFα to induce inflammation, and the expression level of COX2 protein, which is an inflammation-inducing marker, was confirmed.
To this end, mouse RAW264.7 cell line was distributed in a 6-well plate at a density of 2×10^5 cells/well and cultured in α-MEM medium containing 10% FBS for 24 hours. The medium was replaced with serum-free α-MEM medium (1% penicillin) and then fasted for 6 hours. […] After 1 hour, the cells were treated with 20 nM TNF-α and incubated for 24 hours. Thereafter, the cells were harvested, a cell lysate was prepared, and then Western blot was performed using antibodies against the COX2 protein (Cell Signaling Technology, USA).

[5] = tested on: human C28/12 chondrocyte cell line; assay: ECM production in three-dimensional culture of chondrocytes (alginate beads, alcian blue or toluidine blue); assay type: cell-based; settings: peptide 100 and 150 μg/ml, day 9, FIG. 4
Protocol: Human-derived chondrocytes were treated with the peptide containing the amino acid sequence of SEQ ID NO: 1 in three-dimensional culture, and then it was confirmed whether there was an increase in the formation of glycosaminoglycan, which is an ECM component.
To this end, 3×10^6 cells of human C28/12 chondrocyte cell line were suspended in 1 ml of an alginate solution (1.25% alginate, 20 mM HEPES, 150 mM Nacl, pH 7.4), and the alginate solution containing the cells were added dropwise to a polymerization solution (100 mM CaCl2), 10 mM HEPES, pH 7.4), thereby preparing beads. The prepared beads were washed twice with DPBS, and then the beads were distributed in a conical tube containing DMEM medium (5% FBS). […] After removing the medium on day 9, 3.7% formaldehyde was added and fixed for 6 hours. Dehydration was performed using a tissue processor (EtOH 70%, 80%, 90%, 100% I, II, xylene I, II in this order for 30 minutes each), and a paraffin block was prepared by embedding. The paraffin block was sectioned on a glass slide to a thickness of […] and then completely dried for 24 hours or longer. The sections were hydrated (Xylene I, II, EtOH 100% I, II, 90%, 80%, 70% in this order for 3 minutes each) and washed three times by being immersed in running water for 10 seconds. […]

SOX9 protein = assay: Expression of ECM regulator SOX9 in mesenchymal stem cells (Western blot); assay type: cell-based, human; settings: AD-MSC, peptide 50 and 100 μg/ml, days 3, 7, 14, FIGS. 6A to 6C
Protocol: Adipose-derived mesenchymal stem cells were treated with the peptide containing the amino acid sequence of SEQ ID NO: 1, and then it was confirmed whether there was an increase in expression of SOX9 protein, which is an ECM regulator.
At this time, as a positive control (CM), a solution containing dexamethasone (100 nM)+ascorbic acid (50 μM)+proline (40 μM)+TGFβ1 (10 ng/ml)+1X ITS was used. After removing the medium on days 3, 7, and 14, cells were harvested, a cell lysate was prepared, and Western blot was performed using antibodies (Millipore, USA) against the SOX9 and SOX5 proteins.

mouse RAW264.7 cell line [6] = assay: Cytotoxicity / cell proliferation, CCK-8 assay; assay type: cell-based; settings: peptide 10, 30, 50, 100, 150 μg/ml, 3 days
Protocol: The effect of the peptide of the present invention on cell proliferation was confirmed using CCK-8 assay. CCK-8 reagent is reduced by cellular dehydrogenase to produce a colored product, and the proliferation of cells may be confirmed through a difference in absorbance using this.
After removing the medium, CCK-8 solution (Dojindo, CCK-8 kit) was diluted 10 times in the culture medium and treated at 100 μl each. During incubation at 37° C., absorbance at a wavelength of 450 nm was measured using a microplate reader at 30-minute intervals.

mouse RAW264.7 cell line [7] = assay: Osteoclast differentiation induced by RANKL, TRAP staining; assay type: cell-based; settings: peptide 10 to 150 μg/ml with RANKL, 4 days, FIG. 10A
Protocol: After removing the medium, the cells were fixed for 30 seconds and washed twice with double distilled water. Staining was performed with 100 μl of a TRAP staining solution (acid phosphatase kit, Sigma aldrich) at 37° C. for 30 minutes. Thereafter, the staining solution was removed, washing with double distilled water three times and drying were performed, and then observation was performed with a microscope.

[8] = tested on: mouse RAW264.7 macrophage cell line; assay: Actin ring formation in osteoclasts induced by RANKL (immunofluorescence); assay type: cell-based; settings: peptide 50 and 100 μg/ml with RANKL, 4 days, FIG. 12
Protocol: In addition to the results of Experimental Examples 9 and 10, in order to further confirm the effect of inhibiting osteoclast differentiation according to the treatment with the peptide containing the amino acid sequence of SEQ ID NO: 1 of the present invention, mouse RAW264. […] After removing the medium, the cells were washed three times with cooled PBS and fixed with 4% paraformaldehyde for 30 minutes. The cells were washed three times with cooled PBS for 5 minutes, and then the cells were permeabilized with 0.3% Triton X-100 in PBS for 30 minutes. The cells were washed three times with cooled PBS for 5 minutes, and the cells were blocked with filtered 3% BSA in PBS for 1 hour with stirring. Incubation was performed with primary antibodies (Rhodamin (Red) [Invitrogen™]) diluted to 1:100 with a blocking medium with stirring for 2 hours. The cells were blocked from light and washed three times with PBS for 15 minutes with stirring, DAPI mounting medium (VECTASHIELD® MOUNTING MEDIUM with DAPI) was added, and then each well was covered with a cover slip and observed with a microscope.

With “ACDWGLWWLC (peptide having cartilage regeneration activity) [SEQ ID NO: 1]” the “activity of TRAP (marker of osteoclasts)” value (TRAP) was “inhibited the activity of TRAP”, the “ECM production (glycosaminoglycan formation) in chondrocytes” value [1] was “promoted ECM production” and the “expression of inflammatory cytokine genes (TNFα, IL-1β, Cox2 mRNA)” value [2] was “inhibited the expression of inflammatory cytokine genes”. The “expression of ACAN (aggrecan) gene” value [3] was “promoted the expression”, the “expression of PCP (proteoglycan core protein) gene” value [3] was “promoted the expression” and the “expression of collagen type II (COL2A1) gene” value [3] was “promoted the expression”. For the same sequence, the “expression of ACAN gene” value (human AD-MSC cells) was “promoted the expression”, the “expression of COL 11A gene” value (human AD-MSC cells) was “promoted the expression” and the “expression of COMP gene” value (human AD-MSC cells) was “promoted the expression”. For the same sequence, the “expression of PCP gene” value (human AD-MSC cells) was “promoted the expression”, the “chondrogenic differentiation of adipose-derived mesenchymal stem cells” value [4] was “promoted the chondrogenic differentiation” and the “production of glycosaminoglycan (ECM component) in adipose-derived mesenchymal stem cells” value [4] was “promoted”. The “production of NFATc1 protein” value (NFATc1 protein) was “inhibited the production of NFATc1 protein”, the “increase in inflammatory proteins (COX2 protein)” value (COX2 protein) was “inhibited the increase in inflammatory proteins” and the “formation of glycosaminoglycan (ECM component) in three-dimensional culture of chondrocytes” value [5] was “promoted the formation of glycosaminoglycan”. For the same sequence, the “production of SOX9 protein (ECM regulator)” value (SOX9 protein) was “increased production of SOX9 protein”, the “toxicity to mouse macrophages” value (mouse RAW264.7 cell line [6]; CCK-8, FIG. 10B) was “not toxic” and the “CCK-8 absorbance at 450 nm (cell proliferation) versus untreated” value (mouse RAW264.7 cell line [6]; FIG. 10B) was “the absorbance was higher”. For the same sequence, the “differentiation into osteoclasts induced by RANKL” value (mouse RAW264.7 cell line [7]) was “inhibited the differentiation into osteoclasts” and the “formation of actin rings” value [8] was “inhibited the formation of actin rings”.
